Molecular target: MAPK14 (UniProt Q16539)
Assay: Inhibition of MAPK14 Kinase Activity

Sequence of MAPK14 (Q16539 whole entry, looked up): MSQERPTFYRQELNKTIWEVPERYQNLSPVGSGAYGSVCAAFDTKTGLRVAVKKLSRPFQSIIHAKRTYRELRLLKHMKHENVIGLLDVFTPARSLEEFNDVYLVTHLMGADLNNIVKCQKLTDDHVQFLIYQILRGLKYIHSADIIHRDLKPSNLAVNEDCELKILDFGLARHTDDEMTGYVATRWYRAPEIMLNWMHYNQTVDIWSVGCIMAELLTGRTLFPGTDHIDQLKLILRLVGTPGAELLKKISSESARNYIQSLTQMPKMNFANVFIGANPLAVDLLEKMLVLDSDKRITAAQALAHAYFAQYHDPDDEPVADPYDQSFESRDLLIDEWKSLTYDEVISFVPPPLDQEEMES

Row | SMILES | IC50 [µM]
1 | Cc1ccc(NC(=O)c2ccoc2)cc1-c1ccc2c(C3CCNCC3)noc2c1 | < 10
2 | Cc1c(F)cc(C(=O)NC2CC2)cc1-c1ccc2c(cnn2S(=O)(=O)c2cc(F)cc(F)c2)c1 | < 10
3 | Cc1ccc(F)cc1S(=O)(=O)n1ncc2cc(-c3cc(C(=O)NC4CC4)cc(F)c3C)ccc21 | < 10
4 | Cc1ccc(C(=O)NC2CC2)cc1-c1ccc2c(cnn2CC(=O)NC(C)C)c1 | < 10
5 | COc1ccc(CNC(=O)Cn2ncc3cc(-c4cc(C(=O)NC5CC5)cc(F)c4C)ccc32)cc1 | < 10
6 | COc1ccc(S(=O)(=O)n2ncc3cc(-c4cc(C(=O)NC5CC5)ccc4C)ccc32)cc1OC | < 10
7 | Cc1ccc(C(=O)NC2CC2)cc1-c1ccc2c(CC(=O)N3CCCC3)noc2c1 | < 10
8 | Cc1ccc(C(=O)NC2CC2)cc1-c1ccc2c(CC(=O)NCCO)noc2c1 | < 10
9 | Cc1ccccc1S(=O)(=O)n1ncc2cc(-c3cc(C(=O)NC4CC4)cc(F)c3C)ccc21 | < 10
10 | Cc1ccc(CNC(=O)Cn2ncc3cc(-c4cc(C(=O)NC5CC5)cc(F)c4C)ccc32)cc1 | < 10
11 | Cc1c(F)cc(C(=O)NC2CC2)cc1-c1ccc2c(cnn2S(=O)(=O)C(C)C)c1 | < 10
12 | Cc1ccc(S(=O)(=O)n2ccc3cc(-c4cc(C(=O)NC5CC5)cc(F)c4C)ccc32)cc1 | < 10
13 | CNC(=O)c1ccc(CNC(=O)Cn2ncc3cc(-c4cc(C(=O)NC5CC5)cc(F)c4C)ccc32)cc1 | < 10
14 | Cc1ccc(C(=O)NC2CC2)cc1-c1ccc2c(cnn2S(=O)(=O)c2ccc3c(c2)CCO3)c1 | < 10
15 | Cc1ccc(NC(=O)c2ccoc2)cc1-c1ccc2c(C)noc2c1 | < 10
16 | CCCS(=O)(=O)n1ncc2cc(-c3cc(C(=O)NC4CC4)cc(F)c3C)ccc21 | < 10
17 | CCc1ccc(S(=O)(=O)n2ncc3cc(-c4cc(C(=O)NC5CC5)cc(F)c4C)ccc32)cc1 | < 10
18 | Cc1noc(C)c1S(=O)(=O)n1ncc2cc(-c3cc(C(=O)NC4CC4)cc(F)c3C)ccc21 | < 10
19 | Cc1ccc(C(=O)NC2CC2)cc1-c1ccc2c(CN3CCOCC3)noc2c1 | < 10
20 | Cc1ccc(C(=O)NC2CC2)cc1-c1ccc2c(N)noc2c1 | < 10
21 | Cc1c(F)cc(C(=O)NC2CC2)cc1-c1ccc2c(cnn2S(C)(=O)=O)c1 | < 10

Row | SMILES | IC50 [µM]
22 | Cc1ccc(C(=O)NC2CC2)cc1-c1ccc2c(cnn2CC(=O)N2CCOCC2)c1 | < 10
23 | Cc1ccc(NC(=O)c2ccnc(N3CCCC3)c2)cc1-c1ccc2onc(C)c2c1 | < 10
24 | CCCCCCCCS(=O)(=O)n1ncc2cc(-c3cc(C(=O)NC4CC4)cc(F)c3C)ccc21 | < 10
25 | Cc1ccc(C(=O)NC2CC2)cc1-c1ccc2c(cnn2S(=O)(=O)CC(F)(F)F)c1 | < 10
26 | Cc1ccc(C(=O)NC2CC2)cc1-c1ccc2c(CN3CCCCC3)noc2c1 | < 10
27 | Cc1c(F)cc(C(=O)NC2CC2)cc1-c1ccc2c(cnn2S(=O)(=O)c2ccc(Cl)s2)c1 | < 10
28 | Cc1ccc(C(=O)NC2CC2)cc1-c1ccc2c(CC(=O)N3CCOCC3)noc2c1 | < 10
29 | CNC(=O)c1noc2cc(-c3cc(C(=O)NC4CC4)cc(F)c3C)ccc12 | < 10
30 | Cc1ccc(C(=O)NC2CC2)cc1-c1ccc2c(CC(=O)NCCCO)noc2c1 | < 10
31 | COc1cccc(S(=O)(=O)n2ncc3cc(-c4cc(C(=O)NC5CC5)cc(F)c4C)ccc32)c1 | < 10
32 | Cc1c(F)cc(C(=O)NC2CC2)cc1-c1ccc2c(cnn2S(=O)(=O)c2ccc3c(c2)CCO3)c1 | < 10
33 | CCNC(=O)Cc1noc2cc(-c3cc(C(=O)NC4CC4)ccc3C)ccc12 | < 10
34 | COC(=O)Cn1ncc2cc(-c3cc(C(=O)NC4CC4)cc(F)c3C)ccc21 | < 10
35 | Cc1ccc(C(=O)NC2CC2)cc1-c1ccc2c(N3CCNCC3)noc2c1 | < 10
36 | Cc1c(F)cc(C(=O)NC2CC2)cc1-c1ccc2c(cnn2CC(=O)N2CCOCC2)c1 | < 10
37 | Cc1ccc(C(=O)NC2CC2)cc1-c1ccc2c(cnn2S(=O)(=O)c2ccc(C(F)(F)F)cc2)c1 | < 10
38 | Cc1ccc(S(=O)(=O)n2ncc3cc(-c4cc(C(=O)NC5CC5)cc(F)c4C)ccc32)cc1 | < 10
39 | Cc1c(F)cc(C(=O)NC2CC2)cc1-c1ccc2c(cnn2S(=O)(=O)c2cn(C)c(C)n2)c1 | < 10
40 | Cc1ccc(C(=O)NC2CC2)cc1-c1ccc2c(cnn2S(=O)(=O)c2ccccc2)c1 | < 10
41 | Cc1ccc(C(=O)NC2CC2)cc1-c1ccc2c(N3CCOCC3)noc2c1 | < 10
42 | Cc1c(F)cc(C(=O)NC2CC2)cc1-c1ccc2c(cnn2S(=O)(=O)c2ccc(Cl)cc2)c1 | < 10

Row | SMILES | IC50 [µM]
43 | Cc1ccc(C(=O)NC2CC2)cc1-c1ccc2c(cnn2S(=O)(=O)c2cn(C)cn2)c1 | < 10
44 | Cc1c(F)cc(C(=O)NC2CC2)cc1-c1ccc2[nH]nc(C)c2c1 | < 10
45 | Cc1ccc(C(=O)NC2CC2)cc1-c1ccc2c(cnn2S(=O)(=O)c2cccs2)c1 | < 10
46 | Cc1ccc(C(=O)NC2CC2)cc1-c1ccc2c(cnn2S(=O)(=O)c2ccccc2[N+](=O)[O-])c1 | < 10
47 | Cc1ccc(NC(=O)c2ccsc2)cc1-c1ccc2c(C3CCNCC3)noc2c1 | < 10
48 | Cc1ccc(C(=O)Nc2nccs2)cc1-c1ccc2c(C3CCNCC3)noc2c1 | < 10
49 | Cc1c(F)cc(C(=O)NC2CC2)cc1-c1ccc2c(cnn2S(=O)(=O)c2ccc(F)cc2F)c1 | < 10
50 | Cc1c(F)cc(C(=O)NC2CC2)cc1-c1ccc2c(cnn2S(=O)(=O)c2ccsc2)c1 | < 10
51 | Cc1c(F)cc(C(=O)NC2CC2)cc1-c1ccc2c(cnn2S(=O)(=O)/C=C/c2ccccc2)c1 | < 10
52 | Cc1ccc(C(=O)NC2CC2)cc1-c1ccc2c(cnn2CC(=O)NCc2ccccc2)c1 | < 10
53 | Cc1ccc(C(=O)NC2CC2)cc1-c1ccc2[nH]ncc2c1 | < 10
54 | Cc1ccc(C(=O)NC2CC2)cc1-c1ccc2c(CC(=O)NC3CC3)noc2c1 | < 10
55 | Cc1c(F)cc(C(=O)NC2CC2)cc1-c1ccc2c(ccn2S(=O)(=O)c2ccccc2)c1 | < 10
56 | COC(=O)Cc1noc2cc(-c3cc(C(=O)NC4CC4)ccc3C)ccc12 | < 10
57 | Cc1c(F)cc(C(=O)NC2CC2)cc1-c1ccc2c(cnn2S(=O)(=O)c2cccc(F)c2)c1 | < 10
58 | Cc1ccc(C(=O)NC2CC2)cc1-c1ccc2c(cnn2S(=O)(=O)C(C)C)c1 | < 10
59 | CCCS(=O)(=O)n1ncc2cc(-c3cc(C(=O)NC4CC4)ccc3C)ccc21 | < 10
60 | Cc1ccc(C(=O)NC2CC2)cc1-c1ccc2c(cnn2S(=O)(=O)c2cccc(C#N)c2)c1 | < 10
61 | CCCc1ccc(S(=O)(=O)n2ncc3cc(-c4cc(C(=O)NC5CC5)cc(F)c4C)ccc32)cc1 | < 10

The next lines start with the values.

Row | IC50 [µM] | SMILES
62 | < 10 | Cc1ccc(C(=O)NC2CC2)cc1-c1ccc2nc(NC(=O)C3CC3)sc2c1
63 | < 10 | Cc1c(F)cc(C(=O)NC2CC2)cc1-c1ccc2c(cnn2S(=O)(=O)c2ccccc2F)c1
64 | < 10 | Cc1c(F)cc(C(=O)NC2CC2)cc1-c1ccc2c(cnn2S(=O)(=O)c2cccc(Cl)c2)c1
65 | < 10 | CCCCc1ccc(S(=O)(=O)n2ncc3cc(-c4cc(C(=O)NC5CC5)cc(F)c4C)ccc32)cc1
66 | < 10 | Cc1c(F)cc(C(=O)NC2CC2)cc1-c1ccc2c(cnn2S(=O)(=O)c2ccccc2)c1
67 | < 10 | Cc1ccc(C(=O)NC2CC2)cc1-c1ccc2c(CC(=O)NCC3CC3)noc2c1
68 | < 10 | Cc1c(F)cc(C(=O)NC2CC2)cc1-c1ccc2c(cnn2S(=O)(=O)Cc2ccccc2)c1
69 | < 10 | Cc1ccc(C(=O)Nc2nccs2)cc1-c1ccc2c(C)noc2c1
70 | < 10 | Cc1ccc(C(=O)NC2CC2)cc1-c1ccc2c(cnn2S(=O)(=O)c2c(C)noc2C)c1
71 | < 10 | Cc1ccc(C(=O)Nc2cccc(N3CCOCC3)c2)cc1-c1ccc2c(C)noc2c1
72 | < 10 | Cc1ccc(S(=O)(=O)n2ncc3cc(-c4cc(C(=O)NC5CC5)ccc4C)ccc32)cc1
73 | < 10 | CCCNC(=O)Cn1ncc2cc(-c3cc(C(=O)NC4CC4)ccc3C)ccc21
74 | < 10 | Cc1c(F)cc(C(=O)NC2CC2)cc1-c1ccc2c(C(=O)NC3CC3)noc2c1
75 | < 10 | Cc1ccc(C(=O)NC2CC2)cc1-c1ccc2cn[nH]c2c1
76 | < 10 | Cc1c(F)cc(C(=O)NC2CC2)cc1-c1ccc2c(cnn2S(=O)(=O)c2cc(F)ccc2F)c1
77 | < 10 | COc1cccc(NC(=O)c2ccc(C)c(-c3ccc4c(C5CCNCC5)noc4c3)c2)c1
78 | < 10 | Cc1c(F)cc(C(=O)NC2CC2)cc1-c1ccc2c(c1)c(C)nn2S(=O)(=O)c1cccs1
79 | < 10 | Cc1c(F)cc(C(=O)NC2CC2)cc1-c1ccc2c(C(=O)NCC3CC3)noc2c1

Row | IC50 [µM] | SMILES
80 | < 10 | CCS(=O)(=O)n1ncc2cc(-c3cc(C(=O)NC4CC4)cc(F)c3C)ccc21
81 | < 10 | Cc1c(F)cc(C(=O)NC2CC2)cc1-c1ccc2c(cnn2S(=O)(=O)C2CC2)c1
82 | < 10 | CNC(=O)c1ccc(CNC(=O)Cn2ncc3cc(-c4cc(C(=O)NC5CC5)ccc4C)ccc32)cc1
83 | < 10 | Cc1ccc(C(=O)NC2CC2)cc1-c1ccc2c(cnn2S(=O)(=O)c2ccccc2F)c1
84 | < 10 | Cc1ccc(C(=O)NC2CC2)cc1-c1ccc2c(cnn2S(=O)(=O)c2c(C)nn(C)c2C)c1
85 | < 10 | Cc1ccc(NC(=O)c2ccsc2)cc1-c1ccc2c(C)noc2c1
86 | < 10 | Cc1ccc(C(=O)Nc2cccc(N3CCOCC3)c2)cc1-c1ccc2c(C3CCNCC3)noc2c1
87 | < 10 | Cc1c(F)cc(C(=O)NC2CC2)cc1-c1ccc2c(cnn2S(=O)(=O)c2ccc(F)c(F)c2)c1
88 | < 10 | CC(=O)c1ccc(S(=O)(=O)n2ncc3cc(-c4cc(C(=O)NC5CC5)ccc4C)ccc32)cc1
89 | < 10 | Cc1c(F)cc(C(=O)NC2CC2)cc1-c1ccc2c(cnn2S(=O)(=O)c2ccccc2Cl)c1
90 | < 10 | Cc1ccc(CNC(=O)Cn2ncc3cc(-c4cc(C(=O)NC5CC5)ccc4C)ccc32)cc1
91 | < 10 | Cc1ccc(NC(=O)c2ccnc(N3CCCC3)c2)cc1-c1ccc2c(C3CCNCC3)noc2c1
92 | < 10 | Cc1ccc(C(=O)Nc2ccnc(N3CCCC3)c2)cc1-c1ccc2c(C)noc2c1
93 | < 10 | Cc1c(F)cc(C(=O)NC2CC2)cc1-c1ccc2c(C(=O)N(C)C)noc2c1
94 | < 10 | Cc1ccc(C(=O)NC2CC2)cc1-c1ccc2c(cnn2S(=O)(=O)c2ccc(F)c(F)c2)c1
95 | < 10 | Cc1c(F)cc(C(=O)NC2CC2)cc1-c1ccc2c(cnn2S(=O)(=O)c2cccs2)c1
96 | < 10 | COC(=O)c1ccc(CS(=O)(=O)n2ncc3cc(-c4cc(C(=O)NC5CC5)ccc4C)ccc32)cc1
